The results in this text go back to patent US9187472B2 (AbbVie Inc., priority 2012, dated 2015).

In assay [1] the target is NAMPT (human, recombinant, C-terminally His-tagged) (Homo sapiens, UniProt P43490). The assay is described as follows: Time-Resolved Fluorescence Resonance Energy Transfer (TR-FRET) Binding Assay of NAMPT. As to conditions: without substrates; 6.8 nM NAMPT, 200 nM probe, 3 hours equilibration. The method in brief:
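11-pt half-log compound series; final 6.8 nM NAMPT, 200 nM OG488 nicotinamide-competitive probe, 1 nM Tb-anti-His Ab, 2% DMSO, HEPES pH 7.5/NaCl/MgCl2/DTT/glycerol buffer. 3 h RT equilibration. Em520/Em495 ratio (Ex 337 nm), control-normalized, 4-parameter fit → IC50.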
For orientation: In TR-FRET formats the signal depends on donor and acceptor labels being close together.

The subject of assay [2] is PC3 cells. The assay is described as follows: NAMPT Cell Proliferation Assay. The format is cell-based. As to conditions: Homo sapiens, PC-3, 120 h, 5 days incubation, cell viability by Cell Titer Glo. The gist of the method: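 Seed PC3 at 500 cells/well (RPMI, 10% HI-FBS), attach overnight; add compound, 10-fold series 10 μM → 1×10^−5 μM; incubate 5 d, 37° C/5% CO2; luminescent viability readout; fit % inhibition sigmoidally for IC50.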
On the technique in general: Cellular ATP, detected with luciferase, serves as a proxy for viable cell number.

Assay [3] addresses NAMPT (Homo sapiens, UniProt P43490). The assay is described as follows: TR-FRET Binding Assay of NAMPT with PRPP. As to conditions: with 200 μM PRPP and 2.5 mM ATP; 2 nM NAMPT, 2 nM probe, 16 hours equilibration. The gist of the method:
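TR-FRET probe-displacement binding with 2 nM NAMPT, 2 nM probe and 1 nM Tb-anti-His antibody, run in the presence of 200 μM PRPP and 2.5 mM ATP at 2% DMSO. Equilibrated 16 hours before reading so test compounds could undergo enzymatic modification.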

NAMPT (human, recombinant, C-terminally His-tagged), sequence (P43490 whole entry): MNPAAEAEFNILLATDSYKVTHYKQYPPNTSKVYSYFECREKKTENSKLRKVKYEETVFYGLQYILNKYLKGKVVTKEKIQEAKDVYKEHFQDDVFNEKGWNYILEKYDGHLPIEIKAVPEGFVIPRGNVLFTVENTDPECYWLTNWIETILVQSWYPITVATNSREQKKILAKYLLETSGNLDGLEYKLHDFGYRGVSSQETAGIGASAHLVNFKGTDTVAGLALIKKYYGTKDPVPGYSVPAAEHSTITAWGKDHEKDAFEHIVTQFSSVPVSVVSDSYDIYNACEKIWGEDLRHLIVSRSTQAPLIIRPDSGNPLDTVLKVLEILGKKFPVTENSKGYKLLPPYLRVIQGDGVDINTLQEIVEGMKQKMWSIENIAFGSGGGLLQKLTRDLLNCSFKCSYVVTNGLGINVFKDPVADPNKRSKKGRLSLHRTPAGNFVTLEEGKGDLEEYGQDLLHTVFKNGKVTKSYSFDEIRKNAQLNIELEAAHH
NAMPT, sequence (P43490 whole entry): as above

As for `O=C(NCc1ccn2ccnc2c1)c1ccc(C2CCN(C(=O)CCC(F)(F)F)C2)s1` (stereo not drawn) [Example 796, N-(imidazo[1,2-a]pyridin-7-ylmethyl)-5-[1-(4,4,4-trifluorobutanoyl)pyrrolidin-3-yl]thiophene-2-carboxamide], the IC50 in assay [1] came to 91.7 nM; in assay [2] it was 4.65 nM; in assay [3], 0.49 nM.
Regarding `CCCC(=O)N1CCC(c2ccc(C(=O)NCc3ccn4ccnc4c3)cc2)CC1` [Example 505, 4-(1-butanoylpiperidin-4-yl)-N-(imidazo[1,2-a]pyridin-7-ylmethyl)benzamide], the concentration for half-maximal inhibition (IC50) amounted to 253 nM in assay [1], 30.5 nM in assay [2] and 0.355 nM in assay [3].
In the same order, the values of `CC(C)(C)OC(=O)N1CCC(c2ccc(C(=O)Nc3ccc4nccn4c3)cc2)CC1` [Example 323, tert-butyl 4-[4-(imidazo[1,2-a]pyridin-6-ylcarbamoyl)phenyl]piperidine-1-carboxylate] are 1400 nM, 175 nM and 0.232 nM.
In the same order, the values of `CC(C)(C)OC(=O)N1CCC(c2ccc(NC(=O)NCc3ccn4ccnc4c3)cc2)CC1` [Example 216, tert-butyl 4-(4-{[(imidazo[1,2-a]pyridin-7-ylmethyl)carbamoyl]amino}phenyl)piperidine-1-carboxylate] are 118 nM, 6.59 nM and 0.19 nM.
In the same order, the values of `O=C(CC1CCOCC1)Nc1ccc(NC(=O)NCc2ccn3ccnc3c2)cc1` [Example 284, N-(4-{[(imidazo[1,2-a]pyridin-7-ylmethyl)carbamoyl]amino}phenyl)-2-(tetrahydro-2H-pyran-4-yl)acetamide] are 7.96 nM, 107 nM and 0.169 nM.
Regarding `O=C(NCc1ccn2ccnc2c1)c1ccc(C2CN(C(=O)c3ccccn3)C2)cc1` [Example 661, N-(imidazo[1,2-a]pyridin-7-ylmethyl)-4-[1-(pyridin-2-ylcarbonyl)azetidin-3-yl]benzamide], the 50% inhibitory concentration (IC50) was found to be 462 nM in assay [1], 67.2 nM in assay [2] and 0.641 nM in assay [3].
In the same order, the values of `O=C(NCc1ccn2ccnc2c1)Nc1ccc(C2CCN(C(=O)[C@H]3CCCO3)CC2)cc1` [Example 289, 1-(imidazo[1,2-a]pyridin-7-ylmethyl)-3-(4-{1-[(2R)-tetrahydrofuran-2-ylcarbonyl]piperidin-4-yl}phenyl)urea] are 155 nM, 9.33 nM and 0.286 nM.
In the same order, the values of `O=C(NCc1ccn2ccnc2c1)c1ccc(C2CCN(C(=O)[C@H]3CCCO3)C2)cc1` (stereo partly drawn) [Example 373, N-(imidazo[1,2-a]pyridin-7-ylmethyl)-4-{1-[(2R)-tetrahydrofuran-2-ylcarbonyl]pyrrolidin-3-yl}benzamide] are 3040 nM, 585 nM and 0.36 nM.
In the same order, the values of `COCCC(=O)N(Cc1ccc(C#N)cc1)c1ncc(C(=O)Nc2ccc3nccn3c2)s1` [Example 54, 2-[(4-cyanobenzyl)(3-methoxypropanoyl)amino]-N-(imidazo[1,2-a]pyridin-6-yl)-1,3-thiazole-5-carboxamide] are 363 nM, 303 nM and 2.55 nM.
`O=C(NCc1ccn2ccnc2c1)c1ccc(OC2CCN(C(=O)[C@@H]3CCCO3)CC2)cc1` [Example 419, N-(imidazo[1,2-a]pyridin-7-ylmethyl)-4-({1-[(2S)-tetrahydrofuran-2-ylcarbonyl]piperidin-4-yl}oxy)benzamide]: the half-maximal inhibitory concentration (IC50) in assay [1] came out at 2430 nM; in assay [2], 365 nM; in assay [3], 0.197 nM.
Take `CC(C)C(=O)N1CC=C(c2ccc(C(=O)NCc3ccn4ccnc4c3)o2)CC1` [Example 744, N-(imidazo[1,2-a]pyridin-7-ylmethyl)-5-[1-(2-methylpropanoyl)-1,2,3,6-tetrahydropyridin-4-yl]furan-2-carboxamide]: the IC50 was 1080 nM in assay [1], 505 nM in assay [2] and 0.806 nM in assay [3].
In the same order, the values of `CC(C)(O)C(=O)N1CC=C(c2ccc(C(=O)NCc3ccc4nccn4c3)cc2)CC1` [Example 91, 4-[1-(2-hydroxy-2-methylpropanoyl)-1,2,3,6-tetrahydropyridin-4-yl]-N-(imidazo[1,2-a]pyridin-6-ylmethyl)benzamide] are 174 nM, 13.9 nM and 1.26 nM.
In the same order, the values of `O=C(NCc1ccc2nccn2c1)c1ccc(-c2cnn(CC3CCCCC3)c2)s1` [Example 179, 5-[1-(cyclohexylmethyl)-1H-pyrazol-4-yl]-N-(imidazo[1,2-a]pyridin-6-ylmethyl)thiophene-2-carboxamide] are 58.1 nM, 2.18 nM and 0.445 nM.
In the same order, the values of `O=C(NCc1ccn2ccnc2c1)c1ccc(-c2cnn(CC3CCCOC3)c2)o1` (stereo not drawn) [Example 479, N-(imidazo[1,2-a]pyridin-7-ylmethyl)-5-[1-(tetrahydro-2H-pyran-3-ylmethyl)-1H-pyrazol-4-yl]furan-2-carboxamide] are 63 nM, 8.08 nM and 0.243 nM.
Consider `O=C(NCc1ccn2ccnc2c1)c1ccc(C(=O)NC[C@@H]2CCOC2)cc1` [Example 394, N-(imidazo[1,2-a]pyridin-7-ylmethyl)-N′-[(3S)-tetrahydrofuran-3-ylmethyl]benzene-1,4-dicarboxamide], for which the IC50 was over 10000 nM in assay [1], over 10000 nM in assay [2] and 3.08 nM in assay [3].
Consider `CCC(C)(C)C(=O)N1CCC(c2ccc(C(=O)NCc3ccn4ccnc4c3)cc2)C1` (stereo not drawn) [Example 598, 4-[1-(2,2-dimethylbutanoyl)pyrrolidin-3-yl]-N-(imidazo[1,2-a]pyridin-7-ylmethyl)benzamide], for which the IC50 in assay [1] was 457 nM; in assay [2] it was 16.6 nM; in assay [3] it was 0.804 nM.
In the same order, the values of `CC(C)C(=O)N1CCC(c2ncc(C(=O)NCc3ccn4ccnc4c3)s2)CC1` [Example 543, N-(imidazo[1,2-a]pyridin-7-ylmethyl)-2-[1-(2-methylpropanoyl)piperidin-4-yl]-1,3-thiazole-5-carboxamide] are 1480 nM, 386 nM and 0.383 nM.
With `O=C(NCc1ccn2ccnc2c1)c1ccc(OC2CN(C(=O)c3ccccc3)C2)cc1` [Example 561, 4-[(1-benzoylazetidin-3-yl)oxy]-N-(imidazo[1,2-a]pyridin-7-ylmethyl)benzamide], the IC50 in assay [1] came to 869 nM; in assay [2], 240 nM; in assay [3], 0.335 nM.
In the same order, the values of `O=C(NCc1ccn2ccnc2c1)c1ccc(C2CCN(C(=O)c3ccc(F)cc3)C2)cc1` (stereo not drawn) [Example 562, 4-[1-(4-fluorobenzoyl)pyrrolidin-3-yl]-N-(imidazo[1,2-a]pyridin-7-ylmethyl)benzamide] are 218 nM, 70.9 nM and 0.607 nM.
In the same order, the values of `O=C(Nc1ccc(C2=CCN(C(=O)C3CCS(=O)(=O)CC3)CC2)cc1)Nc1ccc2nccn2c1` [Example 37, 1-(4-{1-[(1,1-dioxidotetrahydro-2H-thiopyran-4-yl)carbonyl]-1,2,3,6-tetrahydropyridin-4-yl}phenyl)-3-imidazo[1,2-a]pyridin-6-ylurea] are 129 nM, 34.7 nM and 0.309 nM.
As to `O=C(NCc1ccc2nccn2c1)c1ccc(C2=CCN(C(=O)C3CCC(F)(F)CC3)CC2)cc1` [Example 105, 4-{1-[(4,4-difluorocyclohexyl)carbonyl]-1,2,3,6-tetrahydropyridin-4-yl}-N-(imidazo[1,2-a]pyridin-6-ylmethyl)benzamide], the IC50 in assay [1] was 106 nM; in assay [2], 6.61 nM; in assay [3] it was 0.476 nM.
As for `O=C(NCc1ccc2nccn2c1)c1ccc(OC2CCN(C(=O)CC(F)(F)F)CC2)cc1` [Example 170, N-(imidazo[1,2-a]pyridin-6-ylmethyl)-4-{[1-(3,3,3-trifluoropropanoyl)piperidin-4-yl]oxy}benzamide], the half-maximal inhibitory concentration (IC50) in assay [1] was 3360 nM; in assay [2], 604 nM; in assay [3], 2.25 nM.
In the same order, the values of `CC(C)(C)OC(=O)N1CC[C@@H](Oc2ccc(C(=O)NCc3ccn4ccnc4c3)cc2)C1` [Example 436, tert-butyl (3R)-3-{4-[(imidazo[1,2-a]pyridin-7-ylmethyl)carbamoyl]phenoxy}pyrrolidine-1-carboxylate] are 1590 nM, 762 nM and 0.416 nM.
In the case of `O=C(NCc1ccn2ccnc2c1)c1ccc(O[C@H]2CCN(C(=O)[C@@H]3CCOC3)C2)cc1` [Example 339, N-(imidazo[1,2-a]pyridin-7-ylmethyl)-4-({(3S)-1-[(3R)-tetrahydrofuran-3-ylcarbonyl]pyrrolidin-3-yl}oxy)benzamide], the half-maximal inhibitory concentration (IC50) is over 10000 nM in assay [1], 9180 nM in assay [2] and 0.797 nM in assay [3].
In the same order, the values of `CC(C)OCC(=O)Nc1ccc(C(=O)NCc2ccc3nccn3c2)cc1` [Example 82, N-(imidazo[1,2-a]pyridin-6-ylmethyl)-4-{[(propan-2-yloxy)acetyl]amino}benzamide] are 357 nM, 67.9 nM and 6.42 nM.

A word on the IC50: it is the concentration that gives 50% inhibition.
